ChEMBL document CHEMBL3399937, “(18)F-AmBF3-MJ9: a novel radiofluorinated bombesin derivative for prostate cancer imaging” (Bioorg Med Chem, 2015)

Assays:
Blood [1] = assay: Biodistribution in blood of NSG mouse xenografted with human PC-3 tumor at 0.37 to 0.74 MBq, iv after 1 hr by gamma counting analysis in presence of BAY86-7548; assay type: ADME, organism-based; details: in vivo
[2] = Biodistribution in fat of NSG mouse xenografted with human PC-3 tumor at 0.37 to 0.74 MBq, iv after 1 hr by gamma counting analysis in presence of BAY86-7548; assay type: ADME, organism-based, Adipose tissue; details: in vivo
Pancreas = assay: Biodistribution in pancreas of NSG mouse xenografted with human PC-3 tumor at 0.37 to 0.74 MBq, iv after 1 hr by gamma counting analysis in presence of BAY86-7548; assay type: ADME, organism-based; details: in vivo
Mus musculus [3] = assay: Biodistribution in adrenal gland of NSG mouse xenografted with human PC-3 tumor at 0.37 to 0.74 MBq, iv after 1 hr by gamma counting analysis in presence of BAY86-7548; assay type: ADME, organism-based; details: in vivo
Kidney [4] = assay: Biodistribution in kidney of NSG mouse xenografted with human PC-3 tumor at 0.37 to 0.74 MBq, iv after 1 hr by gamma counting analysis in presence of BAY86-7548; assay type: ADME, organism-based; details: in vivo
Lung [5] = assay: Biodistribution in lung of NSG mouse xenografted with human PC-3 tumor at 0.37 to 0.74 MBq, iv after 1 hr by gamma counting analysis in presence of BAY86-7548; assay type: ADME, organism-based; details: in vivo
Bone [6] = assay: Biodistribution in bone of NSG mouse xenografted with human PC-3 tumor at 0.37 to 0.74 MBq, iv after 1 hr by gamma counting analysis in presence of BAY86-7548; assay type: ADME, organism-based, Bone element; details: in vivo
Blood [7] = assay: Biodistribution in blood of NSG mouse xenografted with human PC-3 tumor at 0.37 to 0.74 MBq, iv after 2 hrs by gamma counting analysis; assay type: ADME, organism-based; details: in vivo
Mus musculus [8] = assay: Biodistribution in testis of NSG mouse xenografted with human PC-3 tumor at 0.37 to 0.74 MBq, iv after 2 hrs by gamma counting analysis; assay type: ADME, organism-based; details: in vivo
Spleen [9] = assay: Biodistribution in spleen of NSG mouse xenografted with human PC-3 tumor at 0.37 to 0.74 MBq, iv after 2 hrs by gamma counting analysis; assay type: ADME, organism-based; details: in vivo
Kidney [10] = assay: Biodistribution in kidney of NSG mouse xenografted with human PC-3 tumor at 0.37 to 0.74 MBq, iv after 2 hrs by gamma counting analysis; assay type: ADME, organism-based; details: in vivo
Lung [11] = assay: Biodistribution in lung of NSG mouse xenografted with human PC-3 tumor at 0.37 to 0.74 MBq, iv after 2 hrs by gamma counting analysis; assay type: ADME, organism-based; details: in vivo
Heart [12] = assay: Biodistribution in heart of NSG mouse xenografted with human PC-3 tumor at 0.37 to 0.74 MBq, iv after 2 hrs by gamma counting analysis; assay type: ADME, organism-based; details: in vivo
Tumour [13] = assay: Biodistribution in tumor of NSG mouse xenografted with human PC-3 tumor at 0.37 to 0.74 MBq, iv after 2 hrs by gamma counting analysis; assay type: ADME, organism-based, Neoplasm; details: in vivo
Bone [14] = assay: Biodistribution in bone of NSG mouse xenografted with human PC-3 tumor at 0.37 to 0.74 MBq, iv after 2 hrs by gamma counting analysis; assay type: ADME, organism-based, Bone element; details: in vivo
Brain [15] = assay: Biodistribution in brain of NSG mouse xenografted with human PC-3 tumor at 0.37 to 0.74 MBq, iv after 2 hrs by gamma counting analysis; assay type: ADME, organism-based; details: in vivo
Plasma = assay: Metabolic stability in mouse plasma after 0.5 to 2 hrs by HPLC analysis; assay type: ADME, cell-free
[16] = Biodistribution in fat of NSG mouse xenografted with human PC-3 tumor at 0.37 to 0.74 MBq, iv after 0.5 hrs by gamma counting analysis; assay type: ADME, organism-based, Adipose tissue; details: in vivo
Mus musculus [17] = assay: Biodistribution in seminal gland of NSG mouse xenografted with human PC-3 tumor at 0.37 to 0.74 MBq, iv after 0.5 hrs by gamma counting analysis; assay type: ADME, organism-based; details: in vivo
Spleen [18] = assay: Biodistribution in spleen of NSG mouse xenografted with human PC-3 tumor at 0.37 to 0.74 MBq, iv after 0.5 hrs by gamma counting analysis; assay type: ADME, organism-based; details: in vivo
Liver = assay: Biodistribution in liver of NSG mouse xenografted with human PC-3 tumor at 0.37 to 0.74 MBq, iv after 0.5 hrs by gamma counting analysis; assay type: ADME, organism-based; details: in vivo
Mus musculus [19] = assay: Biodistribution in adrenal gland of NSG mouse xenografted with human PC-3 tumor at 0.37 to 0.74 MBq, iv after 0.5 hrs by gamma counting analysis; assay type: ADME, organism-based; details: in vivo
Kidney [20] = assay: Biodistribution in kidney of NSG mouse xenografted with human PC-3 tumor at 0.37 to 0.74 MBq, iv after 0.5 hrs by gamma counting analysis; assay type: ADME, organism-based; details: in vivo
Lung [21] = assay: Biodistribution in lung of NSG mouse xenografted with human PC-3 tumor at 0.37 to 0.74 MBq, iv after 0.5 hrs by gamma counting analysis; assay type: ADME, organism-based; details: in vivo
Heart [22] = assay: Biodistribution in heart of NSG mouse xenografted with human PC-3 tumor at 0.37 to 0.74 MBq, iv after 0.5 hrs by gamma counting analysis; assay type: ADME, organism-based; details: in vivo
Tumour [23] = assay: Biodistribution in tumor of NSG mouse xenografted with human PC-3 tumor at 0.37 to 0.74 MBq, iv after 0.5 hrs by gamma counting analysis; assay type: ADME, organism-based, Neoplasm; details: in vivo
Muscle tissue = assay: Biodistribution in muscle of NSG mouse xenografted with human PC-3 tumor at 0.37 to 0.74 MBq, iv after 0.5 hrs by gamma counting analysis; assay type: ADME, organism-based; details: in vivo
Bone [24] = assay: Biodistribution in bone of NSG mouse xenografted with human PC-3 tumor at 0.37 to 0.74 MBq, iv after 0.5 hrs by gamma counting analysis; assay type: ADME, organism-based, Bone element; details: in vivo
Brain [25] = assay: Biodistribution in brain of NSG mouse xenografted with human PC-3 tumor at 0.37 to 0.74 MBq, iv after 0.5 hrs by gamma counting analysis; assay type: ADME, organism-based; details: in vivo
[26] = Biodistribution in fat of NSG mouse xenografted with human PC-3 tumor at 0.37 to 0.74 MBq, iv after 1 hr by gamma counting analysis; assay type: ADME, organism-based, Adipose tissue; details: in vivo
Mus musculus [27] = assay: Biodistribution in seminal gland of NSG mouse xenografted with human PC-3 tumor at 0.37 to 0.74 MBq, iv after 1 hr by gamma counting analysis; assay type: ADME, organism-based; details: in vivo
Mus musculus [28] = assay: Biodistribution in testis of NSG mouse xenografted with human PC-3 tumor at 0.37 to 0.74 MBq, iv after 1 hr by gamma counting analysis; assay type: ADME, organism-based; details: in vivo
Intestine = assay: Biodistribution in intestine of NSG mouse xenografted with human PC-3 tumor at 0.37 to 0.74 MBq, iv after 1 hr by gamma counting analysis; assay type: ADME, organism-based; details: in vivo
Spleen [29] = assay: Biodistribution in spleen of NSG mouse xenografted with human PC-3 tumor at 0.37 to 0.74 MBq, iv after 1 hr by gamma counting analysis; assay type: ADME, organism-based; details: in vivo
Kidney [30] = assay: Biodistribution in kidney of NSG mouse xenografted with human PC-3 tumor at 0.37 to 0.74 MBq, iv after 1 hr by gamma counting analysis; assay type: ADME, organism-based; details: in vivo
Lung [31] = assay: Biodistribution in lung of NSG mouse xenografted with human PC-3 tumor at 0.37 to 0.74 MBq, iv after 1 hr by gamma counting analysis; assay type: ADME, organism-based; details: in vivo
Tumour [32] = assay: Biodistribution in tumor of NSG mouse xenografted with human PC-3 tumor at 0.37 to 0.74 MBq, iv after 1 hr by gamma counting analysis; assay type: ADME, organism-based, Neoplasm; details: in vivo
Brain [33] = assay: Biodistribution in brain of NSG mouse xenografted with human PC-3 tumor at 0.37 to 0.74 MBq, iv after 1 hr by gamma counting analysis; assay type: ADME, organism-based; details: in vivo

CC(C)C[C@H](NC(=O)C[C@H](O)[C@H](CC(C)C)NC(=O)[C@H](Cc1cnc[nH]1)NC(=O)CNC(=O)[C@@H](NC(=O)[C@H](C)NC(=O)[C@H](Cc1c[nH]c2ccccc12)NC(=O)[C@H](CCC(N)=O)NC(=O)[C@@H](Cc1ccccc1)NC(=O)CN1CCC(NC(=O)Cn2cc(C[N+](C)(C)C[B-](F)(F)[17F])nn2)CC1)C(C)C)C(N)=O
Drug uptake (Blood [1]): 0.48 % ID/g | Drug uptake [2]: 0.12 % ID/g | Drug uptake (Pancreas): 0.42 % ID/g | Drug uptake (Mus musculus [3]): 0.21 % ID/g | Drug uptake (Kidney [4]): 6.66 % ID/g | Drug uptake (Lung [5]): 0.71 % ID/g | Drug uptake (Bone [6]): 0.25 % ID/g | Drug uptake (Blood [7]): 0.32 % ID/g | Drug uptake (Mus musculus [8]): 0.13 % ID/g | Drug uptake (Spleen [9]): 0.26 % ID/g | Drug uptake (Kidney [10]): 1.46 % ID/g | Drug uptake (Lung [11]): 0.4 % ID/g | Drug uptake (Heart [12]): 0.06 % ID/g | Drug uptake (Tumour [13]): 2.2 % ID/g | Drug uptake (Bone [14]): 0.18 % ID/g | Drug uptake (Brain [15]): 0.01 % ID/g | Stability (Plasma): Stable | Drug uptake [16]: 0.25 % ID/g | Drug uptake (Mus musculus [17]): 0.33 % ID/g | Drug uptake (Spleen [18]): 1.08 % ID/g | Drug uptake (Liver): 2.63 % ID/g | Drug uptake (Mus musculus [19]): 1.16 % ID/g | Drug uptake (Kidney [20]): 6.6 % ID/g | Drug uptake (Lung [21]): 1.96 % ID/g | Drug uptake (Heart [22]): 0.54 % ID/g | Drug uptake (Tumour [23]): 2.77 % ID/g | Drug uptake (Muscle tissue): 0.38 % ID/g | Drug uptake (Bone [24]): 0.7 % ID/g | Drug uptake (Brain [25]): 0.07 % ID/g | Drug uptake [26]: 0.07 % ID/g | Drug uptake (Mus musculus [27]): 0.7 % ID/g | Drug uptake (Mus musculus [28]): 0.25 % ID/g | Drug uptake (Intestine): 6.3 % ID/g | Drug uptake (Spleen [29]): 0.33 % ID/g | Drug uptake (Kidney [30]): 2.43 % ID/g | Drug uptake (Lung [31]): 0.96 % ID/g | Drug uptake (Tumour [32]): 1.47 % ID/g | Drug uptake (Brain [33]): 0.02 % ID/g
